Our source for the EC50 values is patent US11897851B2, “Heterocyclic GLP-1 agonists” (Gasherbrum Bio, Inc., priority 2021, dated 2024).

One may read the EC50 as the concentration at which the effect is half-maximal.

The experiment deals with T1, GLP-1 Receptor (Homo sapiens, UniProt P43220).
T1 construct: host or cells: HEK293/GLP1R/CRE-LUC (HEK293/CRE-Luc stably expressing the GLP-1 receptor)
T1 sequence (P43220 24-463, species assumed): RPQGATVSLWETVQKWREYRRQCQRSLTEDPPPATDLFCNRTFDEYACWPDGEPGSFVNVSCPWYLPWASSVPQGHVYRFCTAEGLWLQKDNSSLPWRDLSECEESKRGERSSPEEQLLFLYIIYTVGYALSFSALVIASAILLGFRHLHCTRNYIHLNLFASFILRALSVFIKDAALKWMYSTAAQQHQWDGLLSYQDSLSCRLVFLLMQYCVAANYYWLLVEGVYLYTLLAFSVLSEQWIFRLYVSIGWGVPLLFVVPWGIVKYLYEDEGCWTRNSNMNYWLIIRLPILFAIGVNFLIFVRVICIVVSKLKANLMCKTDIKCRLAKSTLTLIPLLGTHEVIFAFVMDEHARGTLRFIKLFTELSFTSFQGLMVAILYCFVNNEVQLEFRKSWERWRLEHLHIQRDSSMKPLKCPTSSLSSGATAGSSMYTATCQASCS
Kind of experiment: GLP-1R agonist cAMP stimulation assay (HEK293/GLP1R/CRE-LUC cells, Cisbio cAMP dynamic 2 kit).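 Further: compounds tested in half-log serial dilution, cAMP detected with cAMP-d2 and anti-cAMP cryptate antibody reagents after 1 h at room temperature.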 The class given is cell-based. The conditions noted are these: HEK293/CRE-Luc cell line stably expressing the GLP-1 Receptor; 1000 cells/well; 30 min at 37° C.; 0.5 mM IBMX, 0.1% BSA; read-out: GLP1R cAMP Stimulation DR: EC50.
For the molecule `CCn1cncc1Cn1c(/C=C/C(=O)O)nnc1CN1CCC(c2cccc3c2OC(C)(c2ccc(Cl)cc2F)O3)CC1` (stereo not drawn) [Compound 142, (E)-3-(5-((4-(2-(4-chloro-2-fluorophenyl)-2-methylbenzo[d][1,3]dioxol-4-yl)piperidin-1-yl)methyl)-4-((1-ethyl-1H-imidazol-5-yl)methyl)-4H-1,2,4-triazol-3-yl)acrylic acid], the EC50 was 0.012 nM.

On to `CCn1cncc1Cn1c(CCC(=O)O)cnc1CN1CCC(c2cccc3c2OC(C)(c2ccc(Cl)cc2F)O3)CC1` (stereo not drawn) [Compound 143, 3-(2-((4-(2-(4-chloro-2-fluorophenyl)-2-methylbenzo[d][1,3]dioxol-4-yl)piperidin-1-yl)methyl)-1-((1-ethyl-1H-imidazol-5-yl)methyl)-1H-imidazol-5-yl)propanoic acid], for which the EC50 stood at 0.0059 nM.

Take `CCn1cncc1Cn1c(CCC(=O)O)nnc1CN1CCC(c2cccc3c2OC(C)(c2ccc(Cl)cc2F)O3)CC1` (stereo not drawn) [Compound 144, 3-(5-((4-(2-(4-chloro-2-fluorophenyl)-2-methylbenzo[d][1,3]dioxol-4-yl)piperidin-1-yl)methyl)-4-((1-ethyl-1H-imidazol-5-yl)methyl)-4H-1,2,4-triazol-3-yl)propanoic acid]: the EC50 amounted to 0.015 nM.

For `C[C@]1(c2ccc(Cl)cc2F)Oc2cccc(C3CCN(Cc4ncc(/C=C/C(=O)O)n4CCOC(F)(F)F)CC3)c2O1` [Compound 145, (S,E)-3-(2-((4-(2-(4-chloro-2-fluorophenyl)-2-methylbenzo[d][1,3]dioxol-4-yl)piperidin-1-yl)methyl)-1-(2-(trifluoromethoxy)ethyl)-1H-imidazol-5-yl)acrylic acid], the EC50 worked out at 0.16 nM.

On to `CC1(c2ccc(Cl)cc2F)Oc2cccc(C3CCN(Cc4ncc(/C=C/C(=O)O)n4Cc4cccnc4C(F)(F)F)CC3)c2O1` (stereo not drawn) [Compound 146, (E)-3-(2-((4-(2-(4-chloro-2-fluorophenyl)-2-methylbenzo[d][1,3]dioxol-4-yl)piperidin-1-yl)methyl)-1-((2-(trifluoromethyl)pyridin-3-yl)methyl)-1H-imidazol-5-yl)acrylic acid], for which the EC50 amounted to 1.9 nM.

In the case of `Cc1ncccc1Cn1c(/C=C/C(=O)O)cnc1CN1CCC(c2cccc3c2OC(C)(c2ccc(Cl)cc2F)O3)CC1` (stereo not drawn) [Compound 147, (E)-3-(2-((4-(2-(4-chloro-2-fluorophenyl)-2-methylbenzo[d][1,3]dioxol-4-yl)piperidin-1-yl)methyl)-1-((2-methylpyridin-3-yl)methyl)-1H-imidazol-5-yl)acrylic acid], the EC50 was 0.045 nM.

For `CCc1ncccc1Cn1c(/C=C/C(=O)O)cnc1CN1CCC(c2cccc3c2OC(C)(c2ccc(Cl)cc2F)O3)CC1` (stereo not drawn) [Compound 148, (E)-3-(2-((4-(2-(4-chloro-2-fluorophenyl)-2-methylbenzo[d][1,3]dioxol-4-yl)piperidin-1-yl)methyl)-1-((2-ethylpyridin-3-yl)methyl)-1H-imidazol-5-yl)acrylic acid], the concentration for a half-maximal effect (EC50) came out at 0.98 nM.

`COc1cccc(Cn2c(/C=C/C(=O)O)cnc2CN2CCC(c3cccc4c3OC(C)(c3ccc(Cl)cc3F)O4)CC2)c1` (stereo not drawn) [Compound 149, (E)-3-(2-((4-(2-(4-chloro-2-fluorophenyl)-2-methylbenzo[d][1,3]dioxol-4-yl)piperidin-1-yl)methyl)-1-(3-methoxybenzyl)-1H-imidazol-5-yl)acrylic acid]: the EC50 came to 0.12 nM.

On to `CC1(c2ccc(Cl)cc2F)Oc2cccc(C3CCN(Cc4ncc(/C=C/C(=O)O)n4Cc4cccc(Cl)c4)CC3)c2O1` (stereo not drawn) [Compound 150, (E)-3-(2-((4-(2-(4-chloro-2-fluorophenyl)-2-methylbenzo[d][1,3]dioxol-4-yl)piperidin-1-yl)methyl)-1-(3-chlorobenzyl)-1H-imidazol-5-yl)acrylic acid], for which the 50% effective concentration (EC50) came out at 0.054 nM.

Consider `CC1(c2ccc(Cl)cc2F)Oc2cccc(C3CCN(Cc4ncc(/C=C/C(=O)O)n4Cc4ccccc4)CC3)c2O1` (stereo not drawn) [Compound 151, (E)-3-(1-benzyl-2-((4-(2-(4-chloro-2-fluorophenyl)-2-methylbenzo[d][1,3]dioxol-4-yl)piperidin-1-yl)methyl)-1H-imidazol-5-yl)acrylic acid], for which the half-maximal effective concentration (EC50) was found to be 0.043 nM.

For `C[C@@H](c1ccccc1)n1c(/C=C/C(=O)O)cnc1CN1CCC(c2cccc3c2OC(C)(c2ccc(Cl)cc2F)O3)CC1` (stereo partly drawn) [Compound 152, (E)-3-(2-((4-(2-(4-chloro-2-fluorophenyl)-2-methylbenzo[d][1,3]dioxol-4-yl)piperidin-1-yl)methyl)-1-((S)-1-phenylethyl)-1H-imidazol-5-yl)acrylic acid], the EC50 amounted to 0.53 nM.

For `C[C@H](c1ccccc1)n1c(/C=C/C(=O)O)cnc1CN1CCC(c2cccc3c2OC(C)(c2ccc(Cl)cc2F)O3)CC1` (stereo partly drawn) [Compound 153, (E)-3-(2-((4-(2-(4-chloro-2-fluorophenyl)-2-methylbenzo[d][1,3]dioxol-4-yl)piperidin-1-yl)methyl)-1-((R)-1-phenylethyl)-1H-imidazol-5-yl)acrylic acid], the EC50 worked out at 18 nM.

For `CC1(c2ccc(Cl)cc2F)Oc2cccc(C3CCN(Cc4ncc(/C=C/C(=O)O)n4C[C@H]4CCOC4)CC3)c2O1` (stereo partly drawn) [Compound 154, (E)-3-(2-((4-(2-(4-chloro-2-fluorophenyl)-2-methylbenzo[d][1,3]dioxol-4-yl)piperidin-1-yl)methyl)-1-(((R)-tetrahydrofuran-3-yl)methyl)-1H-imidazol-5-yl)acrylic acid], the EC50 worked out at 0.012 nM.

On to `C[C@]1(c2ccc(Cl)cc2F)Oc2cccc(C3CCN(Cc4ncc(/C=C/C(=O)O)n4C[C@H]4CCOC4)CC3)c2O1` [Compound 155, (E)-3-(2-((4-((S)-2-(4-chloro-2-fluorophenyl)-2-methylbenzo[d][1,3]dioxol-4-yl)piperidin-1-yl)methyl)-1-(((R)-tetrahydrofuran-3-yl)methyl)-1H-imidazol-5-yl)acrylic acid], for which the EC50 was 0.0054 nM.

In the case of `CC1(c2ccc(Cl)cc2F)Oc2cccc(C3CCN(Cc4ncc(/C=C/C(=O)O)n4C[C@@H]4CCOC4)CC3)c2O1` (stereo partly drawn) [Compound 156, (E)-3-(2-((4-(2-(4-chloro-2-fluorophenyl)-2-methylbenzo[d][1,3]dioxol-4-yl)piperidin-1-yl)methyl)-1-(((S)-tetrahydrofuran-3-yl)methyl)-1H-imidazol-5-yl)acrylic acid], the EC50 was determined as 0.086 nM.

Turning to `CC1(c2ccc(Cl)cc2F)Oc2cccc(C3CCN(Cc4ncc(/C=C/C(=O)O)n4CC4(F)COC4)CC3)c2O1` (stereo not drawn) [Compound 157, (E)-3-(2-((4-(2-(4-chloro-2-fluorophenyl)-2-methylbenzo[d][1,3]dioxol-4-yl)piperidin-1-yl)methyl)-1-((3-fluorooxetan-3-yl)methyl)-1H-imidazol-5-yl)acrylic acid], the EC50 was found to be 0.26 nM.

Consider `CC(C)OCCn1c(/C=C/C(=O)O)cnc1CN1CCC(c2cccc3c2OC(C)(c2ccc(Cl)cc2F)O3)CC1` (stereo not drawn) [Compound 158, (E)-3-(2-((4-(2-(4-chloro-2-fluorophenyl)-2-methylbenzo[d][1,3]dioxol-4-yl)piperidin-1-yl)methyl)-1-(2-isopropoxyethyl)-1H-imidazol-5-yl)acrylic acid], for which the EC50 was found to be 0.056 nM.

For `COC(C)Cn1c(/C=C/C(=O)O)cnc1CN1CCC(c2cccc3c2OC(C)(c2ccc(Cl)cc2F)O3)CC1` (stereo not drawn) [Compound 159, (E)-3-(2-((4-(2-(4-chloro-2-fluorophenyl)-2-methylbenzo[d][1,3]dioxol-4-yl)piperidin-1-yl)methyl)-1-(2-methoxypropyl)-1H-imidazol-5-yl)acrylic acid], the concentration giving a half-maximal response (EC50) came out at 0.051 nM.

With `CC1(c2ccc(Cl)cc2F)Oc2cccc(C3CCN(Cc4ncc(/C=C/C(=O)O)n4C[C@H]4CCCO4)CC3)c2O1` (stereo partly drawn) [Compound 160, (E)-3-(2-((4-(2-(4-chloro-2-fluorophenyl)-2-methylbenzo[d][1,3]dioxol-4-yl)piperidin-1-yl)methyl)-1-(((R)-tetrahydrofuran-2-yl)methyl)-1H-imidazol-5-yl)acrylic acid], the EC50 was found to be 0.12 nM.

Turning to `CC1(c2ccc(Cl)cc2F)Oc2cccc(C3CCN(Cc4ncc(/C=C/C(=O)O)n4CCS(C)(=O)=O)CC3)c2O1` (stereo not drawn) [Compound 161, (E)-3-(2-((4-(2-(4-chloro-2-fluorophenyl)-2-methylbenzo[d][1,3]dioxol-4-yl)piperidin-1-yl)methyl)-1-(2-(methylsulfonyl)ethyl)-1H-imidazol-5-yl)acrylic acid], the EC50 was 0.18 nM.

For the molecule `CC1(c2ccc(Cl)cc2F)Oc2cccc(C3CCN(Cc4ncc(/C=C/C(=O)O)n4CC4CC4)CC3)c2O1` (stereo not drawn) [Compound 162, (E)-3-(2-((4-(2-(4-chloro-2-fluorophenyl)-2-methylbenzo[d][1,3]dioxol-4-yl)piperidin-1-yl)methyl)-1-(cyclopropylmethyl)-1H-imidazol-5-yl)acrylic acid], the EC50 was determined as 0.14 nM.

With `CC1(c2ccc(Cl)cc2F)Oc2cccc(C3CCN(Cc4ncc(/C=C/C(=O)O)n4[C@@H]4CCOC4)CC3)c2O1` (stereo partly drawn) [Compound 163, (E)-3-(2-((4-(2-(4-chloro-2-fluorophenyl)-2-methylbenzo[d][1,3]dioxol-4-yl)piperidin-1-yl)methyl)-1-((R)-tetrahydrofuran-3-yl)-1H-imidazol-5-yl)acrylic acid], the EC50 stood at 0.13 nM.

In the case of `Cn1c(/C=C/C(=O)O)cnc1CN1CCC(c2cccc3c2OC(C)(c2ccc(Cl)cc2F)O3)CC1` (stereo not drawn) [Compound 164, (E)-3-(2-((4-(2-(4-chloro-2-fluorophenyl)-2-methylbenzo[d][1,3]dioxol-4-yl)piperidin-1-yl)methyl)-1-methyl-1H-imidazol-5-yl)acrylic acid], the EC50 turned out to be 0.33 nM.

For `CC1(c2ccc(Cl)cc2F)Oc2cccc(C3CCN(Cc4ncc(/C=C/C(=O)O)n4CC4CCS4(=O)=O)CC3)c2O1` (stereo not drawn) [Compound 165, (E)-3-(2-((4-(2-(4-chloro-2-fluorophenyl)-2-methylbenzo[d][1,3]dioxol-4-yl)piperidin-1-yl)methyl)-1-((1,1-dioxidothietan-2-yl)methyl)-1H-imidazol-5-yl)acrylic acid], the concentration for a half-maximal effect (EC50) came out at 0.014 nM.
